Source: patent publication US10548906B2, “Methods of promoting hepatic regeneration” (Intercept Pharmaceuticals, Inc., priority 2015, dated 2020)
Entries after “also recorded” stand apart in the source; their conditions may differ.

Tests used:
Adult female rabbits = assay: PVE in rabbits: CLV and bile salts (Example 5a); type: in vivo, rabbit; conditions: day 3 after PVE
Description: Adult female rabbits received vehicle or the FXR agonist obeticholic acid (OCA; 10 mg/kg, daily oral gavage) for 7 days prior to, and after embolization (day 0) of the cranial liver lobes. Effectiveness of PVE was confirmed by portography, and caudal liver volume (CLV) was analyzed by CT-volumetric analysis at days −7, −1, +3 and +7. Rabbits were sacrificed at day +3 and +7 (n=5-6 per group).

[1] = system: New Zealand White rabbits; assay: Liver injury after PVE: clinical chemistry and H&E histology (Example 5); type: in vivo, rabbit
Description: (§1) Liver tissue (left lateral and caudal lobes) was fixed in buffered formalin for 48 h, and subsequently dehydrated and embedded in paraffin. Four-micron sections of liver tissue were cut and stained with standard hematoxylin and eosin stain. Sections were scored for lobular and portal inflammation according to Table 1. Additionally, liver sections were stained with Ki67 antibodies to quantify hepatocyte proliferation, and hematoxylin counterstain as described in detail previously (van der Loos C M, et al. J Histochern Cytochern 2013; 61(1):11-8; Marsman H A, et al. Br J Surg 2013; 100(5):674-83). Ki67-positive hepatocytes were counted in a total of five high power fields per animal, by a hepatopathologist (JV) blinded to the group allocation. Liver histology was assessed at day 3 and 7 for n=6 per treatment group.
Serum alanine transaminase (ALT), amino aspartate aminotransferase (AST), gamma-glutamyl transferase (γGT), and alkaline phosphatase (ALP) were determined by the Department of Clinical Chemistry (Academic Medical Center, Amsterdam, The Netherlands) using a Cobas 8000 modular analyzer (Roche, Basel, Switzerland) on samples obtained from 12 animals per treatment group.

FXR = FXR target gene expression in terminal ileum and liver by RT-qPCR (Example 5); type: in vivo, rabbit
Description: Total RNA was isolated from terminal ileum and (non)embolized liver lobes using Tri Reagent (Ambion). Following treatment with DNAseI (Promega, Leiden, the Netherlands), 750 ng total RNA was converted to cDNA using the iSCRIPT cDNA synthesis kit (BioRad, Veenendaal, the Netherlands). Quantitative RT-PCR (real-time polymerase chain reaction) was performed on an IQ5 Cycler using SYBR Green chemistry (SYBR Green MasterMix, BioRad) and cDNA equivalent to 7.5 ng total RNA as template. Expression levels were calculated using LinReg software (Ramakers C, et al. Neurosci Lett 2003; 339(1):62-6) and normalized to the geometric mean of Rplp0, Hprt and Gapdh. Predicted product size was checked by agarose gel electrophoresis. PCR analysis was performed using tissue obtained at day 3 and 7 for n=6 per treatment group.

Wistar rats [2] = assay: Bile volume and HPLC bile acid analysis in rBDL rats prior to PHx (Example 6); type: in vivo, rat
Description: (§2) At baseline (i.e., directly before PHx) and one to five days after PHx, animals were euthanized under isoflurane anesthesia by exsanguination. Blood samples were collected from the caval vein in heparin-anticoagulated vacutainers (BD, Franklin Lakes, N.J.) and centrifuged for 10 min (3000×g, 4° C.). In rBDL animals sacrificed at baseline, bile was aspirated with a syringe from the dilated extrahepatic bile duct, weighed, and stored at −80° C. The liver and ileum were excised, weighed, loafed, and either fixed in a 10% (vol/vol) neutralized formalin solution (J. T. Baker, Center Valley, Pa.), snap-frozen in liquid nitrogen and stored at −80° C., or collected in RNAlater (Qiagen, Venlo, the Netherlands) and stored at −20° C. Liver regrowth was calculated from the regenerated liver mass, and was expressed as percentage of total liver mass prior to PHx. The projected remnant liver mass was calculated using the weight of the resected liver segments, which represent 70% of the total liver mass. Dry liver weights were measured to correct for hepatic water content [Kloek 2010a].
Bile acids were separated and quantified by reverse-phase high-performance liquid chromatography (HPLC) [Lionarons 2016]. Bile or plasma samples (20 μL) were deproteinated by the addition of 5 volumes of acetonitrile. Following centrifugation (10 min at 20,000×g), solvent was evaporated from supernatants and bile salts were solubilized in 200 μL of 25% methanol. For liver homogenates, 100 mg liver tissue was sonicated for 30-90 s in 500 μL of water. One mL of acetonitrile was added for protein precipitation. Samples were subsequently centrifuged at 20,000×g for 10 min, after which the supernatant was used for analysis. Results were corrected for homogenate protein content. One hundred μL of sample was applied to a Hypersil C18 HPLC column (Thermo Scientific, Waltham, Mass.) operated at 20° C. […] Detection was done using a Nano Quantity Analyte Detector QT-500 (Quant Technologies, Blaine, Minn.). Bile acids were quantified using a separate calibration curve per species. […]

[3] = system: Ki67-positive hepatocytes; assay: Ki67 staining of liver sections, hepatocyte proliferation after PVE (Example 5); type: in vivo, rabbit
Description: as §1

Wistar rats [4] = assay: Hepatobiliary injury markers and histology in rBDL rats before and after PHx (Example 6); type: in vivo, rat
Description: as §2
After formalin fixation, liver specimens were dehydrated, paraffin-embedded, and stained with hematoxylin and eosin (H&E), the collagen type I and III stain picrosirius red, or the proliferation marker Ki67 [Marsman 2013]. Semi-quantitative analysis of H&E- and picrosirius red-stained liver histology was performed by an experienced hepatopathologist (JV) blinded to the experimental groups using a scoring system detailed in Table 1. Ki67-positive hepatocyte nuclei were manually counted by two observers (RFG and PBO) in four randomly-selected microscopic fields at 200× magnification.

[5] = system: New Zealand White rabbits; assay: PVE-induced liver growth in rabbits, CT volumetry and body weight (Example 5)
Description: PVE of the cranial liver lobes was performed using polyvinyl alcohol particles and coils at day 0. Caudal liver volume (CLV) was analyzed by CT volumetry at days −7, −1, +3 and +7. Liver function (i.e. mebrofenin uptake) was quantified in subgroups of animals using hepatobiliary scintigraphy. Additional parameters analyzed were plasma transaminase levels, histological scoring of H&E- and Ki67-stained liver sections, and FXR target gene expression.
Six groups of six rabbits were planned for PVE. […] Treatment was started 7 days before PVE, and continued until sacrifice at 3 or 7 days after PVE.
Under digital subtraction portography a Renegade 3F microcatheter (Boston Scientific, Natick, Mass.) with a Transend-ex 0.36 mm×182-cm guide wire (Boston Scientific) was positioned in the main portal branch to the cranial liver lobes. Polyvinyl alcohol particles (90-180 μm and 300-500 μm in diameter, Cook, Bloomington, Ind.) and 2 fibered platinum coils (4.0 and 6.0 mm; Boston Scientific) were infused through the catheter to occlude the portal branches to the cranial lobes. PVE was confirmed by portography, and the mesenteric vein was closed using a ligature. The abdomen was closed in two layers. Baytril was administered daily for 3 days following PVE.
Multiphase CT-scans (Brilliance 64, Philips, Eindhoven, The Netherlands) were performed at day −7, −1, +3, and +7. Animals (n=18 per treatment group) were anesthetized and a 22G catheter was placed in the lateral ear vein. A baseline scan was made and 3 mL of contrast solution (Visipaque, GE Healthcara, Waukesha, Wis.) was injected. Arterial, portal and venous phase scans were made after 15, 30, 45 seconds respectively. Volumetric analysis was performed on 3D reconstruction of 5-mm axial slices using manual delineation. Caudal liver volume (CLV) and total liver volume (TLV) were determined and increase in CLV was determined using the following formula:
The same formula was used to calculate the decrease in cranial liver volume (CrLV; CrLV=TLV−CLV). Increase in CLV and decrease in CrLV was calculated using day −1 values as baseline. […] Regeneration rate was calculated using the formula:

[6] = after seven days of OCA treatment
[7] = prior to PHx, vs control and untreated rBDL

CC[C@H]1[C@@H](O)[C@@H]2[C@H](CC[C@]3(C)[C@@H]([C@H](C)CCC(=O)O)CC[C@@H]23)[C@@]2(C)CC[C@@H](O)C[C@@H]12 [Compound 1, 3α,7α-dihydroxy-6α-ethyl-5β-cholanic acid]
increase in CLV (Adult female rabbits): 59.3±19.2%
plasma ALP vs vehicle ([1]; after PVE): slightly higher
plasma γGT vs vehicle ([1]; after PVE): slightly higher
hepatocellular injury or cholestasis ([1]; conclusion from ALT, AST, γGT, ALP): did not cause hepatocellular injury or cholestasis
histological scoring of H&E sections of the caudal lobe ([1]; day 3 and 7, vs vehicle, listed as OCA): no differences between groups
plasma transaminase levels vs vehicle ([1]; summary): similar
hepatic βKlotho transcript level (FXR; after three days): minor downregulation
hepatic Shp expression (FXR; caudal liver): without transcriptional induction
hepatic expression of Fgfr4 (FXR; caudal liver): not affected
hepatic expression of Cyp7a1 (FXR; caudal liver, day +3): strongly suppressed
Ostβ expression in the liver (FXR; day +3): elevated
ileal Shp expression (FXR; day +3): induction
hepatic Fxr expression (FXR; day +7): reduced
FXR activation (aggregated gene expression analysis) (FXR; ileum and liver, listed as OCA): activation of both ileal and hepatic FXR
ileal expression of Fxr (FXR; terminal ileum): no effect
ileal expression of Ostβ (FXR; terminal ileum): not affected
bile retrieved from the extrahepatic bile duct (Wistar rats [2]; [6]): substantial increase
biliary BA output (Wistar rats [2]; [6]): elevated
hepatic BA load / content (Wistar rats [2]; prior to PHx, rBDL, listed as OCA): reduction; also recorded: effectively counteracted
number of Ki67-positive hepatocytes relative to vehicle ([3]; 3 days after PVE): 1.6 fold
Ki67-positive hepatocytes vs vehicle ([3]; day +3): Increased numbers
bilirubin clearance (Wistar rats [4]; after PHx): lagged marginally
decline of ALP levels (Wistar rats [4]; after PHx): ~4 fold
time to normalization of hepatobiliary injury markers (Wistar rats [4]; after PHx, rBDL groups, recovery more gradual with OCA): ≤ 48 h
ALP levels vs other study arms (Wistar rats [4]; during regeneration): remained higher
liver injury after hepatectomy (Wistar rats [4]; histology day 5 after PHx): did not exacerbate liver injury after hepatectomy
plasma gamma glutamyltransferase (Wistar rats [4]; prior to PHx): followed the same dynamics as ALP
plasma alanine aminotransferase (ALT) (Wistar rats [4]; [7]): considerably higher
plasma alkaline phosphatase (ALP) (Wistar rats [4]; [7]): considerably higher
increase of CLV relative to vehicle controls ([5]; 3 days after PVE): 2.2 fold
increase in caudal liver volume (CLV) ([5]; 3 days after PVE, relative to day −1, N=17): 56.1±20.3%
increase of CLV relative to vehicle controls ([5]; day 7 after PVE): 1.5 fold
increase in caudal liver volume (CLV) ([5]; day 7 after PVE, relative to day −1, N=11): 102.0±38.2%
total liver volume (TLV) corrected for body weight ([5]; pre-treatment period day −7 until day −1, 10 mg/kg daily oral): did not induce spontaneous liver growth
body weight decrease after PVE ([5]; vs vehicle): to a similar extent
